From US20130109698A1, “Small Molecule Inhibitors of Functions of the HIV-1 Matrix Protein” (priority 2010, published 2013)

How the values were obtained:
[1] = system: HIV-1 89BZ167 Subtype B; experiment: Anti-HIV efficacy in human PBMCs; type: cell-based; conditions: for IC50 / IC90: Human immunodeficiency virus 1, PBMC, PBMCs
Protocol: (§1) HIV human peripheral blood mononuclear cell (PBMC) assays were performed as described previously (Lanier et al., 2010, Antimicrob Agents Chemother 54:2901-2909 and Ptak et al., 2008, Antimicrob Agents Chemother 52:1302-1317). Briefly, fresh PBMCs, seronegative for HIV and hepatitis B virus (HBV), were isolated from blood samples of the screened donors (Biological Specialty Corporation, Colmar, Pa.) by using lymphocyte separation medium (LSM; density, 1.078±0.002 g/ml; Cellgro; Mediatech, Inc.) by following the manufacturer's instructions. Cells were stimulated by incubation in 4 μg/mL phytohemagglutinin (PHA; Sigma) for 48 to 72 h. Mitogenic stimulation was maintained by the addition of 20 U/mL recombinant human interleukin-2 (rhIL-2; R&D Systems, Inc.) to the culture medium. PHA-stimulated PBMCs from at least two donors were pooled, diluted in fresh medium, and added to 96-well plates at 5×10^4 cells/well. Cells were infected (final multiplicity of infection [MOI] of ≅0.1) in the presence of nine different concentrations of test compounds (triplicate wells/concentration) and incubated for 7 days. To determine the level of virus inhibition, cell-free supernatant samples were collected for analysis of reverse transcriptase activity (Buckheit et al., 1991, AIDS Res Hum Retroviruses 7:295-302). Following removal of supernatant samples, compound cytotoxicity was measured by the addition of 3-(4,5-dimethylthiazol-2-yl)-5-(3-carboxymethoxy-phenyl)-2-(4-sulfophenyl)-2H-tetrazolium (MTS; CellTiter 96 reagent; Promega) by following the manufacturer's instructions.

[2] = system: HIV-1 92BR025 Subtype C; experiment: Anti-HIV efficacy in human PBMCs; type: cell-based; conditions: for IC50 / IC90: Human immunodeficiency virus 1, PBMC, PBMCs
Protocol: as §1

[3] = system: HIV-1 92UG024 Subtype D; experiment: Anti-HIV efficacy in human PBMCs; type: cell-based; conditions: for IC50 / IC90: Human immunodeficiency virus 1, PBMC, PBMCs
Protocol: as §1

[4] = system: HIV-1 92UG031 Subtype A; experiment: Anti-HIV efficacy in human PBMCs; type: cell-based; conditions: for IC50 / IC90: Human immunodeficiency virus 1, PBMC, PBMCs
Protocol: as §1

[5] = system: HIV-1 93BR020 Subtype F; experiment: Anti-HIV efficacy in human PBMCs; type: cell-based; conditions: for IC50 / IC90: Human immunodeficiency virus 1, PBMC, PBMCs
Protocol: as §1

[6] = system: HIV-1 BCF02 Group O; experiment: Anti-HIV efficacy in human PBMCs; type: cell-based; conditions: for IC50 / IC90: Human immunodeficiency virus 1, PBMC; for IC50 / IC90 / Antiviral index (TC50/IC50): BCF02 Group O
Protocol: as §1

[7] = system: HIV-1 CMU08 Subtype E; experiment: Anti-HIV efficacy in human PBMCs; type: cell-based; conditions: for IC50 / IC90: Human immunodeficiency virus 1, PBMC, PBMCs
Protocol: as §1

[8] = system: HIV-1 G3 Subtype G; experiment: Anti-HIV efficacy in human PBMCs; type: cell-based; conditions: for Antiviral index (TC50/IC50): G3 Subtype G; for IC50 / IC90: Human immunodeficiency virus 1, PBMC
Protocol: as §1

[9] = Compound cytotoxicity in PBMCs (MTS); type: cell-based, human; conditions: human; Table 4 study, PBMCs; read-out: TC50
Protocol: as §1

[10] = system: Vaccinia; type: cell-based; conditions: up to 100 μM
[11] = system: HIV-1 IIIB; experiment: Infection of Sup-T1 cells by HIV-1 IIIB, p24 ELISA; conditions: 50 μM, three days
[12] = system: HIV-1 Ba-L; experiment: Antiviral activity of additional compounds (Tables 6 and 7); type: cell-based
Protocol: as §1

[13] = system: HIV-1 NL4-3; experiment: as above; type: cell-based
Protocol: as §1

[14] = system: PBMCs; experiment: Compound cytotoxicity in PBMCs (MTS); type: cell-based, human; conditions: Tables 6 and 7 study; read-out: TC50 (the source's name)
Protocol: as §1

[15] = Human immunodeficiency virus 1, BAL
[16] = Human immunodeficiency virus 1, NL43

| Structure (SMILES) | Antiviral index (TC50/IC50) [1] | IC50 [1] [µM] | IC90 [1] [µM] | Antiviral index (TC50/IC50) [2] | IC50 [2] [µM] | IC90 [2] [µM] | Antiviral index (TC50/IC50) [3] | IC50 [3] [µM] | IC90 [3] [µM] | Antiviral index (TC50/IC50) [4] | IC50 [4] [µM] | IC90 [4] [µM] | Antiviral index (TC50/IC50) [5] | IC50 [5] [µM] | IC90 [5] [µM] | IC50 ([6]; PBMCs) [µM] | IC90 ([6]; PBMCs) [µM] | Antiviral index (TC50/IC50) [7] | IC50 [7] [µM] | IC90 [7] [µM] | further results |
| --- | --- | --- | --- | --- | --- | --- | --- | --- | --- | --- | --- | --- | --- | --- | --- | --- | --- | --- | --- | --- | --- |
| Cc1ccc(NC(=O)CN2CCN(Cc3nc(-c4ccc(F)cc4)no3)CC2)cc1 [CMPD-7, 2-(4-((3-(4-fluorophenyl)-1,2,4-oxadiazol-5-yl)methyl)piperazin-1-yl)-N-(p-tolyl)acetamide] | >6.97 | 14.4 | > 100 | >9.51 | 10.5 | > 100 | >11.3 | 8.88 | 35.2 | >6.72 | 14.9 | > 100 | >6.42 | 15.6 | > 100 | > 100 | > 100 | >10.4 | 9.64 | 99.7 | activity against the group O isolate HIV-1BCF02, in words ([6]; over the concentrations tested, PBMCs): no activity; Antiviral index (TC50/IC50) [8]: >9.36; IC50 [8]: 10.7 µM; IC90 [8]: 30.2 µM; CC50 at 7 days [9]: > 100 µM; inhibitory effects on replication [10]: no inhibitory effects |
| CCOc1ccc(NC(=O)Cc2cn3ccsc3n2)cc1S(=O)(=O)N1CCCCC1 [CMPD-18, N-(4-ethoxy-3-(piperidin-1-ylsulfonyl)phenyl)-2-(imidazo[2,1-b]thiazol-6-yl)acetamide] | >2.94 | 21.3 | 71.8 | >2.79 | 22.4 | 75 | >6.02 | 10.4 | 25.9 | >3.98 | 15.8 | 64.7 | >3.39 | 18.5 | 54.1 | 27.2 | 75.6 | >5.00 | 15.9 | 95 | Antiviral index (TC50/IC50) [6]: >2.30; Antiviral index (TC50/IC50) [8]: >10.9; IC50 [8]: 5.73 µM; IC90 [8]: 21 µM; CC50 at 7 days [9]: 92.3 µM; inhibitory effects on replication [10]: no inhibitory effects; HIV-1 replication (p24), in words [11]: inhibited |
| O=C(CNC(=O)COc1ccccc1)NCc1ccc(C(=O)N2CCCCC2)cc1 [CMPD-14, N-(2-oxo-2-((4-(piperidine-1-carbonyl)benzyl)amino)ethyl)-2-phenoxyacetamide] | >4.66 | 21.4 | 40.7 | >4.24 | 23.6 | 96.6 | >5.41 | 18.5 | 29.5 | >5.40 | 18.5 | 42.2 | >4.93 | 20.3 | 32.6 | 21.9 | 45 | >6.27 | 16 | 59.5 | Antiviral index (TC50/IC50) [6]: >4.57; Antiviral index (TC50/IC50) [8]: >4.88; IC50 [8]: 20.5 µM; IC90 [8]: 29.2 µM; Antiviral index (TC50/IC50) [12]: > 3.13; IC50 [12, 15]: 32 µM; IC90 [12, 15]: > 100 µM; Antiviral index (TC50/IC50) [13]: > 2.53; IC50 [13, 16]: 39.6 µM; IC90 [13, 16]: > 100 µM; CC50 at 7 days [9]: > 100 µM; CC50 [14]: > 100 µM; inhibitory effects on replication [10]: no inhibitory effects |
